Data set [1] deals with experimental bronchial spasms caused by serotonin. Put plainly: Bronchospasmolytic action, serotonin-induced bronchial spasm (Konzett and Roessler). The format is in vivo, guinea pig. The conditions noted are these: Cavia porcellus, urethane-anaesthetized guinea pigs, dose reducing spasm to 50%, read-out: Bronchospasmolytic action (ED50) as compared with serotonin. The procedure:
(§1) The test substances were administered in an aqueous solution either by the intravenous (i.v.) or the intraduodenal (i.d.) route. Water-insoluble compounds were applied i.d. in carboxymethyl cellulose suspensions.

Data set [2] relates to experimental bronchial spasms caused by acetyl choline. In words: Bronchospasmolytic action, acetyl choline-induced bronchial spasm (Konzett and Roessler). The format is in vivo, guinea pig. Conditions: Cavia porcellus, urethane-anaesthetized guinea pigs, dose reducing spasm to 50%, read-out: Bronchospasmolytic action (ED50) as compared with acetyl choline. The procedure:
as §1

Data set [3] concerns experimental bronchial spasms caused by histamine. Put plainly: Bronchospasmolytic action, histamine-induced bronchial spasm (Konzett and Roessler). Type of data set: in vivo, guinea pig. The conditions noted are these: Cavia porcellus, urethane-anaesthetized guinea pigs, dose reducing spasm to 50%, read-out: Bronchospasmolytic action (ED50) as compared with histamine. The procedure: as §1

The next data set is described as follows: in vivo. Conditions: mouse, ip. The procedure: The LD50 values or the LD50 ranges were determined according to common standards via the mortality occurring over 7 days with NMRI mice following a single intraperitoneal (i.p.) administration.

Where a name gives a salt, the structure may show the parent alone. Read-outs that look alike come from different tables or passages of the source. Bounds are passed on as bounds.

As to `Cc1cc(N2CCSCC2)c([N+](=O)[O-])c(C)n1` [Example 1, 4-(2,6-Dimethyl-3-nitro-4-pyridyl)-thiomorpholinohydrochloride], the ED50 in data set [1] (iv) was 1.32 mg/kg; in data set [1] (i.d. (intraduodenal)), 2.52 mg/kg; in data set [2] (iv) it was 1.47 mg/kg; in data set [2] (i.d. (intraduodenal)), 4.13 mg/kg; in data set [3] (iv), 1.05 mg/kg; in data set [3] (i.d. (intraduodenal)), 2.6 mg/kg. The compound also came in with a 50% lethal dose (LD50) at 168 h in “in vivo” of 160 mg/kg.
In the case of `Cc1cc(N2CCOCC2)c([N+](=O)[O-])c(C)n1` [Example 9], the ED50 in data set [2] (iv) fell in the range of 3 to 10 mg/kg; in data set [3] (iv) it was 1 to 3 mg/kg. This compound had an LD50 at 168 h in the data set “in vivo” of 300 to 1000 mg/kg.
Regarding `Cc1cc(N2CCSCC2)c(C#N)c(C)n1` [Example 13], the ED50 in data set [1] (iv) is 3 mg/kg; in data set [2] (iv), 3 mg/kg; in data set [2] (i.d. (intraduodenal)), 3 to 10 mg/kg; in data set [3] (iv) it was 1 to 3 mg/kg; in data set [3] (i.d. (intraduodenal)), 1 to 3 mg/kg. The LD50 at 168 h in the data set “in vivo” lay within 150 to 300 mg/kg.
Consider `CCCc1cc(N2CCSCC2)c([N+](=O)[O-])c(CCC)n1` [Example 14], for which the ED50 in data set [1] (iv) was 3 to 10 mg/kg; in data set [2] (iv) it was 1 to 3 mg/kg; in data set [3] (iv) it was 3 mg/kg. The LD50 at 168 h in the data set “in vivo” fell in the range of 300 to 600 mg/kg.
Consider `Cc1cc(N2CCSC(C)C2)c([N+](=O)[O-])c(C)n1` (centres unmarked) [Example 15], for which the ED50 in data set [2] (iv) and in data set [3] (iv) was 3 to 10 mg/kg throughout. For the same compound, the LD50 at 168 h in the data set “in vivo” lay in the range of 150 to 300 mg/kg.
As to `COC(CNc1cc(C)nc(C)c1[N+](=O)[O-])OC` [Example 17], the ED50 in data set [2] (iv) is 3 to 10 mg/kg; in data set [3] (iv) it was over 10 mg/kg. For the same compound, in “in vivo”, the LD50 at 168 h fell in the range of 400 to 800 mg/kg.
For the compound `Cc1cc(NCCCl)c([N+](=O)[O-])c(C)n1` [Example 18], the ED50 in data set [1] (iv) was 1 to 3 mg/kg; in data set [2] (iv), 1 to 3 mg/kg; in data set [3] (iv), 3 mg/kg. The LD50 at 168 h in the data set “in vivo” lay within 150 to 300 mg/kg.
With `Cc1cc(NCc2ccc3c(c2)OCO3)c([N+](=O)[O-])c(C)n1` [Example 22], the ED50 in data set [2] (iv) is 3 to 10 mg/kg; in data set [3] (iv), 3 mg/kg.
Regarding `Cc1cc(NCc2ccc(S(N)(=O)=O)cc2)c([N+](=O)[O-])c(C)n1` [Example 23], the ED50 in data set [2] (iv) was 1 to 3 mg/kg; in data set [3] (iv), 3 to 10 mg/kg. Further, the LD50 at 168 h in the data set “in vivo” fell in the range of 600 to 1200 mg/kg.
In the case of `COc1ccc(CNc2cc(C)nc(C)c2[N+](=O)[O-])cc1` [Example 24], the ED50 was 1 to 3 mg/kg in data set [1] (iv), 1 to 3 mg/kg in data set [2] (iv) and 0.3 to 1 mg/kg in data set [3] (iv). Besides, the LD50 at 168 h in the data set “in vivo” is over 600 mg/kg.
In the case of `Cc1cc(NCCF)c([N+](=O)[O-])c(C)n1` [Example 32], the figures for the ED50 in data set [1] (iv), in data set [2] (iv) and in data set [3] (iv) were 1 to 3 mg/kg, 3 to 10 mg/kg and 1 mg/kg, respectively. The same compound displayed an LD50 at 168 h in the data set “in vivo” of 150 to 300 mg/kg.
Consider `Cn1c(=O)c2[nH]cnc2n(C)c1=O` [theophylline-ethylene diamine, reference compound], for which the ED50 in data set [1] (iv) was 7.3 mg/kg; in data set [2] (iv), 8.3 mg/kg; in data set [2] (i.d. (intraduodenal)) it was 10 to 20 mg/kg; in data set [3] (iv), 5.6 mg/kg.

Values taken from patent US4289765A, “4-Aminopyridines and medicaments containing the same” (Hoechst Aktiengesellschaft, priority 1979, dated 1981).
